The test system of one series is COX-2 mRNA. Kind of series: COX-2 expression by RT-PCR. The format is cell-based, human. To be noted: HEKn cells, 2.3 μM LL-37. As for the experimental part: HEKn cells were treated with 2 μM LL-37 and harvested at 6, 12 and 24 hours after stimulation. Untreated cells were used as a control in each time point (light grey columns). RNA from these cells was reverse transcribed and the relative expression of COX-2 with respect to the control was determined by qPCR as above.
(§1) Total RNA was isolated from cells after different treatments according to the manufacturer's directions by using the Quiagen RNasy kit (Operon Biotechnologies, Cologne, Germany). Reverse transcription was performed with a first-strand synthesis kit (Amershan Biosciences)

Series [1] in a line: Antibacterial assay of synthetic LL-37. The settings on record: synthetic LL-37 peptide. From the text: LL-37 peptide was synthesised and purified by HPLC to a purity of 98% (PolyPeptide Laboratories A/S, Hillerød, Denmark). Biological activity of the peptide was confirmed in an antibacterial assay^18.
A further series relates to Caspase-3. The series is described as follows: Caspase-3 activity assay. The format is cell-based, human. As for the experimental part:
(§2) 25,000 cells/well were plated in 6-well plate culture dishes. […], cells were treated with 0, 0.23, 0.46, 0.69, 0.9, 1.15, 2.3, 4.6 and 11.5 μM LL-37. Each treatment was performed in triplicate. The peptide was diluted in medium (DMEM 5% FCS to HaCaT cells and Epilife basal Medium supplemented with 0.1% FCS to HEKn cells). The cells were treated during a total time of 24 h. After LL-37 stimulation, the topoisomerase I inhibitor camptothecin (CAM) (Sigma Chemical Co., St. Luis, Mo.) in dimethylsulfoxide was added to the cells to a final 6 μM concentration. Cells were further incubated for 24 h before analysis.
Caspase-3 enzymatic activity was estimated using the fluorometric substrate VDVAD-AMC (100 μM) and DEVD-AMC (50 μM) as previously described.

The next series has as its system IAP-2 mRNA. Kind of series: IAP-2 expression by RT-PCR. The series is classed as cell-based, human. As for the experimental part:
HEKn cells were treated with 2 μM LL-37 and harvested at different time points after stimulation. RNA from these cells was reverse transcribed and the expression of IAP-2 was determined by real-time PCR. The transcription level of IAP-2 for each time point is shown normalized against 18S RNA and relative to the untreated cells (control set as 1 for each time point).
HEKn cells were treated with or without the specific COX-2 inhibitor SC-791 (25 nM) and further incubated for 6 hours with or without LL-37 (2 μM).
as §1

Another series concerns ERK1/2. The series is described as follows: Assay of phosphorylated ERK1/2 in LL-37 treated HaCaT cells. The series is classed as cell-based, human. To be noted: LL-37 10 μg/ml, Western blot. As for the experimental part:
HaCaT cells were seeded at 10% confluence and kept in DMEM with 0.2% FCS for 36 hours. For the next 48 hours, cells were cultured in DMEM with 1% or 5% FCS respectively, and in presence or absence of LL-37 at 10 μg/ml, with daily changes of medium. EGF at 10 ng/ml served as positive control. The expression of phosphorylated ERK 1/2 was evaluated by Western blot analysis with a mouse monoclonal antibody (Cell Signaling Technology, Beverly Mass.).

In the next series the test system is HaCaT and HEKn cells. The series is classed as cell-based. Here is the method:
as §2
Two apoptotic parameters, the loss of the membrane integrity and DNA decrease were evaluated by flow cytometry.
Evaluation of Membrane integrity: After stimulation with LL-37, and treatment with CAM, cells were harvested by trypsinization. The cells were then washed in cold Dulbecco's phosphate-buffered saline (PBS) and counted with a haemocytometer (Hausser Scientific, Horsham, Pa.). Cell density was adjusted to 1×10^6 cells/ml in PBS. Apoptosis was detected by staining with propidium iodide and YO-PRO-1 dye (Molecular Probes, Eugene, Oreg.). Stained cells were analyzed on a FACScan (Beckton-Dickinson, San Jose, Calif.). Cells were gated for analysis on the basis of the forward (FSC) and side light scatter characteristics (SSC). Analysis of cells expressing YO-PRO and propidium iodide (PI) was done using Cell Quest software (Becton Dickinson), which provided percentages of YO-PRO and PI-positive cells. Cells that stained green with YO-PRO were considered apoptotic. Cells that stained also red, with propidium iodide, were necrotic. Live, viable cells take up little or no dye.
Analysis of DNA content by flow cytometry. The PI/RNase staining buffer (BectonDickinson) was used for this analysis. Trypsinized cells were fixed in cold 70% (v/v) ethanol, and stored until its use at 4° C. The DNA content was measured through incorporation of propidium iodide into DNA. Fluorometric analysis was performed using a FACScan flow cytometer (Becton and Dickinson, Mountain View, Calif., USA). FSC (forward light scatter) and SSC (side light scatter) of particles were simultaneously measured to determine the size and the granularity of cells. The red fluorescence of PI stained nuclei was detected in the FL-4 window (600 nm band pass filter and 35 nm bandwidth). The intensity of fluorescence was proportional to the cellular DNA content. Each histogram was divided into two parts: (1) the M1 area representing asynchronous, non-apoptotic, live cells (cells in G1,S and G2 phases with DNA content equal to 2n to 4N); and (2) the M2 area representing apoptotic cells with a smaller quantity of DNA in comparison to living cells.

Series [2] relates to HaCaT cells. The series is described as follows: LL-37 peptide treatment of epithelial cells, [3H]-Thymidine incorporation. To be noted: 5% fetal calf serum, LL-37 10 μg/ml, vs non treated control. The series is classed as cell-based, human. Here is the method:
A spontaneously immortalised human keratinocyte cell line (HaCaT)^19 was cultured in DMEM (Dulbecco's modified Eagle's medium, Gibco BRL, Life Technologies, Scotland) supplemented with 10% FCS (fetal calf serum, Hy-Clone, Boule Nordic AB Huddinge, Sweden) and antibiotics (PEST=penicillin 50 U/l and streptomycin […], Gibco BRL). Cells were harvested at 70% confluence and seeded in 96-well plates, 2000 cells in 100 μl medium (DMEM+10% FCS and PEST). After 12 hours, medium was changed to serum free medium (DMEM+PEST) and cells were synchronized in G0/G1 by serum starvation for 72 hours and then treated with 100 μl of medium (DMEM+5% FCS+PEST) containing synthetic biologically active LL-37 peptide at 10 μg per ml. Cells treated with only DMEM+5% FCS and PEST served as control. The experiments were performed in quadruplicates. Cell proliferation was evaluated by [^3H]-Thymidine incorporation. Cells were treated with 1 μCi/well of [^3H]-Thymidine (20.00 Ci/mmol, Perkin Elmer Life Sciences Inc. Boston, Mass.) during 12 hours and harvested (Harvester 96, Tomtec, Orage, Conn.) onto a glass fiber filter (Wallac Oy Turku, Finland). The incorporation of [^3H]-Thymidine was determined using a liquid scintillation counter (Microbeta Pluss, Wallac Sveriges AB). The experiment was repeated twice in 6 replicates.

Series [3] deals with hCAP18 transcription. Kind of series: Initial studies on small-molecule control of hCAP18 transcription. The format is cell-based, human. The text has this:
Since thus small molecules can control the expression of hCAP18, it is meaningful to systematically screen for inhibitory compounds. Initial studies have shown that estrogen and some of its metabolites have no effect. […] Based on these findings, antagonists to vitamin D, such as ZK159222 (Schering A G), and TEI-9647 (Tejin Institute for Medical Research, Tokyo), and antagonists to vitamin A such as AGN193109 (Allergen Pharmaceuticals), are potential agents for use in the methods of the invention.

The test system of series [4] is HaCaT cells. Kind of series: Pertussis toxin assay (LL-37 induced proliferation). To be noted: pretreatment with pertussis toxin 20 ng/ml 24 h before LL-37 (5 or 10 μg/ml); not shown. The series is classed as cell-based, human. As for the experimental part: To assess the involvement of FPRL1 in mediating the stimulation of epithelial cell proliferation induced by hCAP18/LL-37, HaCaT cells were treated with the G-protein-coupled receptor inhibitor pertussis toxin. Cells were preincubated with pertussis toxin (Sigma-Aldrich, Switzerland) 24 h before the LL-37 treatment in a final toxin concentration of 20 ng/ml. Medium was changed 48 hours after cell seeding and the HaCaT cells were treated with 100 μl of medium (DMEM+5% FCS and PEST) containing synthetic biologically active LL-37 peptide at 5 or 10 μg per ml respectively. Cells treated with only DMEM+5% FCS and PEST served as control.

Series [5] deals with hCAP18 transcription. The settings on record: via vitamin D receptor binding to response element in hCAP18 promoter; cited from earlier work.

As for “LL-37: synthetic, biologically active C-terminal 37 amino acid peptide of human cathelicidin hCAP18”, in the series on COX-2 mRNA, the “COX-2 mRNA levels” value is “time-dependent increase in mRNA levels” and the “time of highest COX-2 mRNA levels” value was 12 h. The “biological activity in antibacterial assay” value in series [1] is on record as “confirmed”. The “effect on camptothecin-induced caspase activation” value in the series with Caspase-3 (pre-treatment with 2.3 μM LL-37) is on record as “decreased camptothencin-induced caspase activation”. In addition, in the series on IAP-2 mRNA (HEKn cells, 2.3 μM LL-37, from 6 hours to 12 hours after stimulation), the “IAP-2 mRNA” value was “increased IAP-2 mRNA”. In addition, in the series on IAP-2 mRNA (HEKn cells, LL-37 below 2.3 μM, data not shown), the c-IAP-2 levels entry is listed as “did not affect the c-IAP-2 levels”. Moreover, the “activation of ERK1/2” value with ERK1/2 is reported as “no significant activation”. Further, the “amount of apoptotic cells” value with HaCaT and HEKn cells (24 h with LL-37 alone or simultaneously with LL-37 and CAM, data not shown) was “not change in the amount of apoptotic cells”. In addition, the “inhibition of CAM induced apoptosis” value in the series with HaCaT and HEKn cells (LL-37 0.23 μM up to 2,3 μM for 24 hours before CAM 6 μM 24 h, HEKn and HaCaT cells) is “inhibited both DNA fragmentation and loss of membrane permeability”. For the same molecule, the cell death entry in the series with HaCaT and HEKn cells (LL-37 4.6 μM and 11.5 μM, 24 hours before CAM, non-apoptotic mechanisms) was “caused cell death”. Further, the “cytotoxicity (increased fraction of necrotic but not apoptotic cells)” value in the series on HaCaT and HEKn cells (LL-37 4.6 and 11.5 μM, alone or simultaneous with CAM) was “cytotoxic”. Moreover, in the series with HaCaT cells [2], the “cell proliferation ([3H]-Thymidine incorporation)” value was “significant increase in cell proliferation”.

On to estrogen, for which, in the series with hCAP18 transcription [3] (initial studies, cells not given), the “effect on hCAP18 expression” value is reported as “no effect”.

In the case of Vitamin A, the hCAP18 transcription result is “stimulates transcription” in the series with hCAP18 transcription [3] (breast cancer cell line ZR-75-1) and “inhibits the transcription” with hCAP18 transcription [3] (skin keratinocytes).

Regarding `CC[C@@]1(O)C(=O)OCc2c1cc1n(c2=O)Cc2cc3ccccc3nc2-1` [CAM, camptothecin], the “time of peak caspase activity” value in the series with Caspase-3 (keratinocytes, CAM treatment) came out at 24 h. For the same molecule, the caspase activity entry with Caspase-3 (keratinocytes, within the first 12 hours of CAM treatment) is listed as “significantly increased”. Further, the “induction of apoptosis (membrane integrity, DNA profile)” value in the series with HaCaT and HEKn cells (6 μM CAM, 24 hours, HaCaT and keratinocytes) is reported as “morphological changes characteristic of apoptosis”.

As for pertussis toxin, the “suppression of proliferation of HaCaT cells” value in the series on HaCaT cells [4] is “approximately 50%”.

Take vitamin D: the “induction of hCAP18 transcription” value in the series with hCAP18 transcription [5] is recorded as “strongest inducer of hCAP18 transcription”.

Regarding `NS(=O)(=O)c1ccc(-c2c(-c3ccccc3)noc2C(F)F)cc1` [SC-791], in the series with IAP-2 mRNA (HEKn cells pretreated 12 h with 25 nM SC-791, then 2 μM LL-37), the “LL-37 induced increase of IAP-2 mRNA after COX-2 inhibition” value is reported as “did not increase the IAP-2 mRNA levels”.
